Measurements from patent US6365628B1 (Thia Medica AS, priority 1998, dated 2002).

Biological target: T1, PPARγ (Homo sapiens, UniProt P37231)
T1 sequence (P37231 1-505): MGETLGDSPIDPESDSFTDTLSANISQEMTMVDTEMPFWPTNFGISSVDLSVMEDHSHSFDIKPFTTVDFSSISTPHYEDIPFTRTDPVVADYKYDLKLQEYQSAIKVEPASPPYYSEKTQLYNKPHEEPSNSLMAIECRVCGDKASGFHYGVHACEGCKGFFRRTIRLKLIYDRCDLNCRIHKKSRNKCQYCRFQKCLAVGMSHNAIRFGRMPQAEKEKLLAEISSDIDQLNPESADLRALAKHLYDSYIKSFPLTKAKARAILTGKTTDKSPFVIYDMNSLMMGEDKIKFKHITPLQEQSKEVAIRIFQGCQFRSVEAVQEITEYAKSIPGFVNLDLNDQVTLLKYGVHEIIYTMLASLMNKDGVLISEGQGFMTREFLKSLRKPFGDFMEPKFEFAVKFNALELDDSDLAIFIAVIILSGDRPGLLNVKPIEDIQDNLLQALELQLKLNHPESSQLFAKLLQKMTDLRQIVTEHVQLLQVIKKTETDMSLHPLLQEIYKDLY
Test: Ligand of PPARγ
Format: binding

## Tetradecylthioacetic acid [TTA]
  Ligand of PPARγ: less potent ligand
